Reference: publication PMC7998669, “7-(2-Anilinopyrimidin-4-yl)-1-benzazepin-2-ones Designed by a “Cut and Glue” Strategy Are Dual Aurora A/VEGF-R Kinase Inhibitors” (Molecules, 2021)
Converted amounts (≈) assume the structure as drawn.

Tests used:
INS-R = target: T1, INS-R (Homo sapiens, UniProt P06213); test: radiometric 33PanQinase protein kinase assay; type: biochemical; details: 1 µM ATP
T1 construct: host or cells: Sf9 (baculovirus)

AKT1 = target: T2, AKT1 (Homo sapiens, UniProt P31749); test: radiometric 33PanQinase protein kinase assay; type: biochemical; details: 1 µM ATP
T2 construct: host or cells: Sf9 (baculovirus)

[1] = kinetic solubility by nephelometry; type: physicochemical; details: phosphate buffer, 25 °C, pH 7.4, aqueous buffer, kinetic from dmso stock, phosphate buffer pH 7.4, 1% DMSO, mean of two measurements, range in brackets
Experimental: The kinetic solubility of test compounds was determined by nephelometry. Dilution series of test compounds in DMSO with eight to ten different concentrations were prepared. The dilutions were pipetted (2 µL) into the cavities of a 96 well plate (CorningTM UV-transparent flat-bottom microtiter plate; Corning Incorporated, Kennebunk, ME, USA). A phosphate buffer solution pH 7.4 (198 µL) was added, so that the DMSO concentration in the measured solutions was 1%. Three wells were filled with DMSO and phosphate buffer pH 7.4 (2:198) and measured as blank values. The 96 well plate prepared in this way was measured with the NEPHELOstar® Plus nephelometer (BMG Labtech GmbH, Ortenberg, Germany, software: Omega 5.11) at a temperature of 25 °C. Previously, the plate was shaken at 500 rpm for 10 s and the laser intensity was set to 80%. The beam focus was set to 2.50 mm. If the test substance is completely soluble, only a scattering close to the blank value is detected. As soon as a critical concentration is reached in which the kinetic solubility of the test compound is exceeded, solid particles precipitate. Undissolved particles in the sample scatter the laser beam. The intensity of the scattered light is determined, which is proportional to the number of particles in the solution. The blank values were determined and subtracted from the measured values of the test compounds. By measuring different concentrations of the test substances, different intensities of the scattered light, indicated as RNU (relative nephelometric units), were determined. Kick off curves were obtained by plotting concentrations against the RNU values. The point of intersection of the horizontal and of the ascending part of the kick-off curve indicated the kinetic solubility concentration.

T1 sequence (P06213 980-1382 limits assumed): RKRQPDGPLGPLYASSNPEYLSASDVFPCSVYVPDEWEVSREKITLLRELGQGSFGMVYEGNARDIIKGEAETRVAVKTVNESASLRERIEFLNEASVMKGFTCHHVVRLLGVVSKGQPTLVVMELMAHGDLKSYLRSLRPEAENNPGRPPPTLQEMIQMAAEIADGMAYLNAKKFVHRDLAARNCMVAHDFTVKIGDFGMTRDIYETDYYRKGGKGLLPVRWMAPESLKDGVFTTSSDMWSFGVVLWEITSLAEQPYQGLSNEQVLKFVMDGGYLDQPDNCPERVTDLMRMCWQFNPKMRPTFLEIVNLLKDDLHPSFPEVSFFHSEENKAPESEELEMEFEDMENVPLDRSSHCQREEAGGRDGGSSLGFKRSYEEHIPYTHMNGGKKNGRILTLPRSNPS
T2 sequence (P31749 whole entry): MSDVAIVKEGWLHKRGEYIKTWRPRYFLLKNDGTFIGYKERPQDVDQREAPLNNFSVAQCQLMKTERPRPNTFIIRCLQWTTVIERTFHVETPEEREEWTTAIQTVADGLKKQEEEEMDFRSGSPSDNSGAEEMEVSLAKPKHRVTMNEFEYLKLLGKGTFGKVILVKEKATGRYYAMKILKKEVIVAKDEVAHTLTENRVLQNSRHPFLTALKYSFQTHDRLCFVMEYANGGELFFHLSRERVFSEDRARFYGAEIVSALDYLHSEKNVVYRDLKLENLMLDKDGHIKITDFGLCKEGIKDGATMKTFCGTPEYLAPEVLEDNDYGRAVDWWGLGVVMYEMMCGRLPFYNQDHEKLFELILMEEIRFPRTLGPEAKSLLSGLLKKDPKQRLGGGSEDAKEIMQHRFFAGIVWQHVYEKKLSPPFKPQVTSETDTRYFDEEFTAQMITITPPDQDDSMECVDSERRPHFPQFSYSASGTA

SMILES: O=C1CCCc2cc(-c3ccnc(Nc4ccccc4)n3)ccc2N1 [Compound 2a, 7-(2-Anilinopyrimidin-4-yl)-1,3,4,5-tetrahydro-2H-1-benzazepin-2-one]
- IC50 (INS-R): > 100 µM
- IC50 (AKT1): > 100 µM
- solubility kinetic at 10 s [1]: ~50 µM (≈ 16.5 µg/mL)

SMILES: COc1ccc(Nc2nccc(-c3ccc4c(c3)CCCC(=O)N4)n2)cc1O [Compound 2n, 7-[2-(3-Hydroxy-4-methoxyanilino)pyrimidin-4-yl]-1,3,4,5-tetrahydro-2H-1-benzazepin-2-one]
- solubility kinetic at 10 s [1]: 92.6 µM (≈ 34.9 µg/mL)
